From patent publication US20240124467A1, “FUSED PYRIMIDINE COMPOUNDS AS INHIBITORS OF MENIN-MLL INTERACTION” (Biomea Fusion, Inc., priority 2020, published 2024)
Read-outs that look alike come from different tables or passages of the source.

Experiments:
Assay type in all cases: cell-based
K-562 = assay: Cell proliferation inhibition (CellTiter-Glo), K-562 cells; conditions: Homo sapiens, K-562 (BCR-ABL), Table 3
Outline: (§1)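 Leukemia lines in RPMI-1640/10% FBS at 37° C. were exposed in duplicate to seven compound concentrations (5.00×10^−6 to 6.86×10^−9 M), with 0.2% DMSO as 100% proliferation. At day 4 cells were diluted 1:4 in fresh medium containing compound. Viability was read by CellTiter-Glo luminescence at day 4 and day 7.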

MOLM-13 = assay: Cell proliferation inhibition (CellTiter-Glo), MOLM-13 cells; conditions: Homo sapiens, MOLM-13 (MLL-AF9), Table 3
Outline: as §1

MV4-11 = assay: Cell proliferation inhibition (CellTiter-Glo), MV4-11 cells; conditions: Homo sapiens, MV4-11 (MLL-AF4), Table 3
Outline: as §1

OCI-AML3 = assay: Cell proliferation inhibition (CellTiter-Glo), OCI-AML3 cells; conditions: Homo sapiens
Procedure: (§2) The present example evaluates the ability of compounds described herein, inhibitors of Menin/MLL interaction, to inhibit cell proliferation. The proliferation inhibitory effect was investigated in human MLL-leukemia cells selected on the bases of MLL fusion proteins and listed in the table below.
(§3) ATP is present in all metabolically active cells and is considered as a marker for cell viability and proliferation. The metabolic cell activity was determined using the CellTiter-Glo kit from Promega, an ATP monitoring system based on the production of luminescence by the reaction of ATP with added UltraGlo® recombinant luciferase (Kawano et al., 2016, PLOS One, 8:11(7):e0158888), according to the supplier's experimental recommendations. The assay is based on a 96 well plate format. All experiments were carried out in duplicate in one test occasion.
(§4) Test items were dissolved at 20 mM in DMSO with purity ≥99.9% (Sigma catalog no. D8418) and stored at −20° C. Cells were maintained in RPMI-1640 medium (Invitrogen catalog no. 618700) supplemented with 10% of Heat Inactivated FBS (Invitrogen catalog no. 10500) and 1% Pen-Strep (Invitrogen catalog no. 15140) and cultured at 37° C. in a humidified incubator with 5% CO2. Cell lines were grown in suspension and the cell density was maintained in a range of 5×10^4-1×10^6 viable cells/ml where possible. Cells were pelleted at 130 g×5 min.
(§5) Serial dilutions of compounds 1 to 3 in DMSO 100% were prepared starting from a 2.5 mM solutions (prepared by diluting 1:8 the 20 mM stock solution) to generate a 7 point concentration response curve (CRC). Seven concentrations of test compounds (e.g., 5.00×10^−6-1.67×10^−6-5.56×10^−7-1.85×10^−7-6.17×10^−8-2.06×10^−8-6.86×10^−9 M) were assessed in duplicate in an individual test occasion in parallel in the selected cell lines. KO-539 was used as a reference compound and tested in duplicate at seven similar concentrations. 100% of proliferation was represented by the untreated cells (0.2% DMSO).
(§6) Cell proliferation inhibition was monitored at both the following end points: Day 4 (T4) and Day 7 (T7). For the appropriate cell density during the exponential cell growth and re-supply with fresh compound solution at T4, cells were diluted (1:4) with fresh medium containing the compound concentration (1×).
(§7) For each plate to test, one 0.4 μL copy plate and four 0.3 μL copy plates were stamped into 96-well plates not treated for cell adhesion (Sarstedt—cat. no. 82.1581.001) by acoustic liquid handling (Echo) at a concentration which was 500 fold the final assay concentration. Stamped plates were stored at −20° C.
(§8) On Day 0, the day of the experiment cell line suspensions were counted by Cell Viability Analyser, Vi-CELL (Beckman Coulter AY15292), and diluted with fresh medium to obtain the following cell densities: K-562 500 c/ml, MOLM-13 1,000 c/ml, MV4-11 10,000 c/ml, OCI-AML-3 500 c/ml, and U-937 500-1,000 c/ml. 200 μL/well and 150 μL/well of cell suspension were added into the 0.4 μL/well and 0.3 μL/well compound plates, respectively. Cell plate containing 200 μL/well suspension were incubated at 37° C. in a humidified incubator with 5% CO2. From each well of the 150 μL/well cell assay plate, 100 μL were harvested and transferred into a 96-well Optiplate (Perkin Elmer, cat. no. 6005290). Cell viability was measured as described below.
(§9) On Day 4, 150p/well of fresh medium was added into a new 0.3 μL/well copy compound plates. From each well of the 200 μL/well cell assay plate, 100 μL was sampled for the cell viability measurement as described below. 50p was harvested and added to the 150p/well compound plate prepared as described in the first point to dilute 1:4 the cell suspension. The cell assay plate diluted and containing 200 μL/well suspension was incubated at 37° C. in a humidified incubator with 5% CO2.
(§10) On Day 4, 150p/well of fresh medium was added into a new 0.3 μL/well copy compound plates. […]

U-937 = assay: Cell proliferation inhibition (CellTiter-Glo), U-937 cells; conditions: Homo sapiens, U-937 (MLL-wt), Table 3
Procedure: as §2, §3, §4, §5, §6, §7, §8, §9, §10

[1] = K562, 96 h, 4 d, read-out: K-562 IC50 μM 4 d
[2] = K562, 168 h, 7 d, read-out: K-562 IC50 μM 7 d
[3] = 96 h, 4 d, read-out: MOLM13 μM 4 d
[4] = 168 h, 7 d, read-out: MOLM13 μM 7 d
[5] = 96 h, 4 d, read-out: MV4-11 IC50 μM 4 d
[6] = 168 h, 7 d, read-out: MV4-11 IC50 μM 7 d
[7] = OCI-AML-3, 96 h, 4 d, Table 3, read-out: OCI-AML3 IC50 μM 4 d
[8] = OCI-AML-3, 168 h, 7 d, Table 3, read-out: OCI-AML3 IC50 μM 7 d
[9] = 96 h, 4 d, read-out: U-937 IC50 μM 4 d
[10] = 168 h, 7 d, read-out: U-937 IC50 μM 7 d

Compound	IC50 (K-562; [1]) [µM]	IC50 (K-562; [2]) [µM]	IC50 (MOLM-13; [3]) [nM]	IC50 (MOLM-13; [4]) [nM]	IC50 (MV4-11; [5]) [µM]	IC50 (MV4-11; [6]) [µM]	IC50 (OCI-AML3; [7]) [µM]	IC50 (OCI-AML3; [8]) [µM]	IC50 (U-937; [9]) [µM]	IC50 (U-937; [10]) [µM]
O=C(/C=C/CN1CC(F)C1)Nc1ccc(CC(=O)Nc2ccc(-c3cc4c(N5CCOCC5)ncnc4[nH]3)cc2)cc1 [Compound B0700-312, (E)-4-(3-fluoroazetidin-1-yl)-N-(4-(2-((4-(4-morpholino-7H-pyrrolo[2,3-d]pyrimidin-6-yl)phenyl)amino)-2-oxoethyl)phenyl)but-2-enamide]	> 5	> 5	2340	537	1.62	1	> 5	1.95	> 5	> 5
C=CC(=O)N1CC(N2CCC(NC(=O)Nc3ccc(-c4cc5c(N6CCOCC6)ncnc5[nH]4)cc3)CC2)C1 [Compound B0700-330, 1-(1-(1-acryloylazetidin-3-yl)piperidin-4-yl)-3-(4-(4-morpholino-7H-pyrrolo[2,3-d]pyrimidin-6-yl)phenyl)urea]	4.68	1	631	447	0.646	0.38	1.05	0.813	1.62	1.05
C=CC(=O)Nc1ccc(CC(=O)Nc2ccc(-c3cc4c(C)ncnc4[nH]3)cc2)cc1 [Compound B0700-313, N-(4-(2-((4-(4-methyl-7H-pyrrolo[2,3-d]pyrimidin-6-yl)phenyl)amino)-2-oxoethyl)phenyl)acrylamide]	> 5	0.288	> 5000	3310	> 5	> 5	> 5	0.407	> 5	1.26
C=CC(=O)Nc1ccc(CC(=O)NC2CCN(c3nc4c(N5CCOCC5)ncnc4[nH]3)CC2)cc1 [Compound B0700-315, N-(4-(2-((1-(6-morpholino-9H-purin-8-yl)piperidin-4-yl)amino)-2-oxoethyl)phenyl)acrylamide]	> 5	> 5	> 5000	> 5000	> 5	> 5	> 5	> 5	> 5	> 5
C=CC(=O)N[C@@H]1CCCN(Cc2ccnc(C(=O)NC3CCN(c4nc5c(N6CCOCC6)ncnc5[nH]4)CC3)c2)C1 [Compound B0700-308, (R)-4-((3-acrylamidopiperidin-1-yl)methyl)-N-(1-(6-morpholino-9H-purin-8-yl)piperidin-4-yl)picolinamide]	> 5	> 5	> 5000	> 5000	> 5	> 5	> 5	> 5	> 5	> 5

These reach a lower IC50 (K-562; [1]). Values come first.

IC50 (K-562; [1]) [µM]	IC50 (K-562; [2]) [µM]	IC50 (MOLM-13; [3]) [nM]	IC50 (MOLM-13; [4]) [nM]	IC50 (MV4-11; [5]) [µM]	IC50 (MV4-11; [6]) [µM]	IC50 (OCI-AML3; [7]) [µM]	IC50 (OCI-AML3; [8]) [µM]	IC50 (U-937; [9]) [µM]	IC50 (U-937; [10]) [µM]	Compound
0.263	0.191	56	44	0.085	0.069	0.066	0.028	0.105	0.026	C=CC(=O)N(C)[C@@H]1CCCN(Cc2ccnc(C(=O)Nc3ccc(-c4cc5c(N6CCOCC6)ncnc5[nH]4)cc3)c2)C1 [Compound B0700-301, (R)-4-((3-(N-methylacrylamido)piperidin-1-yl)methyl)-N-(4-(4-morpholino-7H-pyrrolo[2,3-d]pyrimidin-6-yl)phenyl)picolinamide]
0.085	0.028	49	34	0.051	0.05	0.076	0.05	0.043	0.022	C=CC(=O)N1CCN(CCc2ccnc(C(=O)Nc3ccc(-c4cc5c(N6CCOCC6)ncnc5[nH]4)cc3)c2)CC1 [Compound B0700-303, 4-(2-(4-acryloylpiperazin-1-yl)ethyl)-N-(4-(4-morpholino-7H-pyrrolo[2,3-d]pyrimidin-6-yl)phenyl)picolinamide]
0.55	0.468	191	178	0.145	0.129	0.145	0.095	0.288	0.158	C=CC(=O)Nc1ccc(CC(=O)Nc2ccc(-c3cc4c(N5CCOCC5)ncnc4[nH]3)cc2)nc1 [Compound B0700-314, N-(6-(2-((4-(4-morpholino-7H-pyrrolo[2,3-d]pyrimidin-6-yl)phenyl)amino)-2-oxoethyl)pyridin-3-yl)acrylamide]
1.86	1.66	324	316	0.38	0.151	0.955	0.24	1.2	0.457	C=CC(=O)N1CC(N2CCC[C@H](NC(=O)Nc3ccc(-c4cc5c(N6CCOCC6)ncnc5[nH]4)cc3)C2)C1 [Compound B0700-332, (S)-1-(1-(1-acryloylazetidin-3-yl)piperidin-3-yl)-3-(4-(4-morpholino-7H-pyrrolo[2,3-d]pyrimidin-6-yl)phenyl)urea]
0.17	0.138	63	50	0.098	0.089	0.043	0.044	0.072	0.037	C=CC(=O)N1CCCC(Nc2ccnc(C(=O)Nc3ccc(-c4cc5c(N6CCOCC6)ncnc5[nH]4)cc3)c2)C1 (stereo not shown) [Compound B0700-302, 4-((1-acryloylpiperidin-3-yl)amino)-N-(4-(4-morpholino-7H-pyrrolo[2,3-d]pyrimidin-6-yl)phenyl)picolinamide]
